Results as given in patent publication US7880007B2, “Bicyclic substituted phenyl piperidine modulators of muscarinic receptors” (Vertex Pharmaceuticals Incorporated, priority 2004, dated 2011).

What was measured:
Type in all cases: cell-based
[1] = target: T1, M1 muscarinic receptor (Homo sapiens, UniProt P11229); test: Functional mobilization of intracellular calcium (FLIPR), M1-CHO cells; conditions: for M1 Activity: M1-CHO cells, calcium mobilization (FLIPR)
T1 construct: expressed in transfected cells; host or cells: CHO (M1-CHO)
T1 sequence (P11229 1-460): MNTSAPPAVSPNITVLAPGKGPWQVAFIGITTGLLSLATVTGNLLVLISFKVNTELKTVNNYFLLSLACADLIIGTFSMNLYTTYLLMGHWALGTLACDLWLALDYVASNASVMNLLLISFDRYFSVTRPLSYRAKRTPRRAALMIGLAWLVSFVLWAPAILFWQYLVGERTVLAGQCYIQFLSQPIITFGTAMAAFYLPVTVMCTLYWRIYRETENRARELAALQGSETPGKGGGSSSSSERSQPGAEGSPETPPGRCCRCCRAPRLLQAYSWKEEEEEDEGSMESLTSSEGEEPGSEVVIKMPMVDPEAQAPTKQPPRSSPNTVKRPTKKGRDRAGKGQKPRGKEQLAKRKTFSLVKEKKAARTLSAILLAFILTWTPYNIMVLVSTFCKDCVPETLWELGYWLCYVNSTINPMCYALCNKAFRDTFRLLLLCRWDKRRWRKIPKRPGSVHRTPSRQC
Outline: (§1)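 FLIPR fluorescence (ex 488, em 540 nm) recorded 60 sec after compound addition to dye-loaded CHO cells. Agonist mode: compound alone. Antagonist mode: 15 min compound pre-incubation, then carbachol at EC80, or co-application. Efficacy expressed as % of maximal carbachol response.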

[2] = target: T2, M3 muscarinic receptor (Homo sapiens, UniProt P20309); test: Functional mobilization of intracellular calcium (FLIPR), M3-CHO cells; conditions: for M3 Activity: M3-CHO cells, calcium mobilization (FLIPR)
T2 construct: expressed in transfected cells; host or cells: CHO (M3-CHO)
Outline: as §1

[3] = target: T3, M2 muscarinic receptor (Homo sapiens, UniProt P08172); test: Functional mobilization of intracellular calcium (FLIPR), M2-CHO cells; conditions: for M2 Activity: M2-CHO cells, calcium mobilization (FLIPR)
T3 construct: expressed in transfected cells; host or cells: CHO (M2-CHO)
T3 sequence (P08172 1-466): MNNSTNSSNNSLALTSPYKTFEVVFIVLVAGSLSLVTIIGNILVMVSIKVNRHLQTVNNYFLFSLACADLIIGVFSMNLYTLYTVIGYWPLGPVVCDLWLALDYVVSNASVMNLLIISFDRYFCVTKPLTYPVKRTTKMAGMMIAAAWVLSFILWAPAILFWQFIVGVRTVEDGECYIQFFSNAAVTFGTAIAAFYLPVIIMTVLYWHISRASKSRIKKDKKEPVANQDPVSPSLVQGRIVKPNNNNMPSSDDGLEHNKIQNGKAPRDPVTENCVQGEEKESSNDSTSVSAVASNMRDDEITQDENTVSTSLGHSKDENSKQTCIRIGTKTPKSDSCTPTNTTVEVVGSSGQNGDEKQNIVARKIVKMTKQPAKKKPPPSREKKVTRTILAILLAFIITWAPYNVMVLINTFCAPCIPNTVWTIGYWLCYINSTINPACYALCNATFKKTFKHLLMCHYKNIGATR
Outline: as §1

[4] = target: T4, M4 muscarinic receptor (Homo sapiens, UniProt P08173); test: Functional mobilization of intracellular calcium (FLIPR), M4-CHO cells; conditions: for M4 Activity: M4-CHO cells, calcium mobilization (FLIPR)
T4 construct: expressed in transfected cells; host or cells: CHO (M4-CHO)
T4 sequence (P08173 1-479): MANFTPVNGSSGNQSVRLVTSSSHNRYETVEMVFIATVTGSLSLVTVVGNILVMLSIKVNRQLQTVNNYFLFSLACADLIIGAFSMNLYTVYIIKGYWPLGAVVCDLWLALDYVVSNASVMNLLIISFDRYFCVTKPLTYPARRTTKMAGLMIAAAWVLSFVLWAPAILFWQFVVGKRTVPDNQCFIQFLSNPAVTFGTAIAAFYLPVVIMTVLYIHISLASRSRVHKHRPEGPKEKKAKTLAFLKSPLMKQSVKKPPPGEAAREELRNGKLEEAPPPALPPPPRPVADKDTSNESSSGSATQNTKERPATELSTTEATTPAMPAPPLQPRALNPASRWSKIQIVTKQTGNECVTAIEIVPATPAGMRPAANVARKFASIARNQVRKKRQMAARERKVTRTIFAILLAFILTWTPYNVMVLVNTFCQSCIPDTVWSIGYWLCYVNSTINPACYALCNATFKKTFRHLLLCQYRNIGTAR
Outline: as §1

[5] = 100% efficacy = maximum response obtained with the Carbachol control
[6] = 100% efficacy is the maximum response obtained with the Carbachol control

T2 sequence (P20309 whole entry): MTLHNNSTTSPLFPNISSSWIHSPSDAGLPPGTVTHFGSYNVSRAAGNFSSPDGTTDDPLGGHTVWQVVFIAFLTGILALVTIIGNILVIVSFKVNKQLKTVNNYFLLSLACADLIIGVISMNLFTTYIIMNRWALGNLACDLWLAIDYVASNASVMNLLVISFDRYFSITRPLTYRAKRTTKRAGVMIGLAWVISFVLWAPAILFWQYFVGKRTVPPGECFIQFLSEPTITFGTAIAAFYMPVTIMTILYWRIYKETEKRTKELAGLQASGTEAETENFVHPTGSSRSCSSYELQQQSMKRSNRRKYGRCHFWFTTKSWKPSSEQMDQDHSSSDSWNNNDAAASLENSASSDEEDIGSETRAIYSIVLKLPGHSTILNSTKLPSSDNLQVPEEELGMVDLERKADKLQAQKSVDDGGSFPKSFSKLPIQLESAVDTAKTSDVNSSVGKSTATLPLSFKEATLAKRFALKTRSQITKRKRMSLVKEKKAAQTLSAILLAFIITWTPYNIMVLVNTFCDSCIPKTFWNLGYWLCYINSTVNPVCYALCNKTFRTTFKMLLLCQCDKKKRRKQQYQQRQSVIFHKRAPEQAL

Row | SMILES | Emax [1, 5] [%] | Emax [2, 5] [%] | Emax [3, 5] [%] | Emax [4, 5] [%] | Emax [1, 6] [%] | Emax [2, 6] [%] | Emax [3, 6] [%] | Emax [4, 6] [%] | M1 Activity [1] | M3 Activity [2] | M2 Activity [3] | M4 Activity [4]
1 | CCOC(=O)N1CCC(N2C3CCC2CC(c2ccccc2OC)C3)CC1 (centres unmarked) [Compound 289, ethyl 4-(3-(2-methoxyphenyl)-8-azabicyclo-[3.2.1]octan-8-yl)piperidine-1-carboxylate] | < 25 | < 25 | < 25 | 25 to 100 |  |  |  |  | + (activity was measured to be greater than 5.0 μM) | + (activity was measured to be greater than 5.0 μM) | + (activity was measured to be greater than 5.0 μM) | ++ (activity was measured to be from 1.0 μM to 5.0 μM)
2 | COc1ccc(-c2cc(F)ccc2F)cc1C1CCN([C@H]2C[C@H]3CC[C@H]2C3)CC1 [Compound 206] | < 25 | < 25 | < 25 | 25 to 100 |  |  |  |  | + (activity was measured to be greater than 5.0 μM) | + (activity was measured to be greater than 5.0 μM) | + (activity was measured to be greater than 5.0 μM) | + (activity was measured to be greater than 5.0 μM)
3 | Cc1ccccc1C1(O)CCN(C2CC3CCC2C3)CC1 (centres unmarked) [Compound 252] | < 25 |  | < 25 | < 25 |  |  |  |  | + (activity was measured to be greater than 5.0 μM) | + (activity was measured to be greater than 5.0 μM) | + (activity was measured to be greater than 5.0 μM) | + (activity was measured to be greater than 5.0 μM)
4 | COc1ccccc1C1CCN(C2CCC3CCCCC3C2)CC1 (centres unmarked) [Compound 255] | 25 to 100 | 25 to 100 | < 25 | 25 to 100 |  |  |  |  | + (activity was measured to be greater than 5.0 μM) | + (activity was measured to be greater than 5.0 μM) | + (activity was measured to be greater than 5.0 μM) | ++ (activity was measured to be from 1.0 μM to 5.0 μM)
5 | COc1ccc(-c2cccc(C#N)c2)cc1C1CCN([C@H]2C[C@H]3CC[C@H]2C3)CC1 [Compound 97] | < 25 | < 25 | < 25 | 25 to 100 |  |  |  |  | + (activity was measured to be greater than 5.0 μM) | + (activity was measured to be greater than 5.0 μM) | + (activity was measured to be greater than 5.0 μM) | + (activity was measured to be greater than 5.0 μM)
6 | Cc1ccc(C(F)(F)F)cc1C1CCN(C2C[C@H]3CC[C@H]2C3)CC1 (some centres unmarked) [Compound 261] | 25 to 100 | < 25 | 25 to 100 | 25 to 100 |  |  |  |  | +++ (activity was measured to be less than 1.0 μM) | + (activity was measured to be greater than 5.0 μM) | + (activity was measured to be greater than 5.0 μM) | ++ (activity was measured to be from 1.0 μM to 5.0 μM)
7 | COc1ccc(-c2ccc(C(=O)NCCCO)cc2)cc1C1CCN(C2CCOCC2)CC1 [Compound 184] | < 25 | < 25 | < 25 | < 25 |  |  |  |  | + (activity was measured to be greater than 5.0 μM) | + (activity was measured to be greater than 5.0 μM) | + (activity was measured to be greater than 5.0 μM) | + (activity was measured to be greater than 5.0 μM)
8 | CCOC(=O)N1CCC(CN2CCC(F)(c3cc(Cl)ccc3OC)CC2)CC1 [Compound 122] | 25 to 100 | < 25 | 25 to 100 | 25 to 100 |  |  |  |  | ++ (activity was measured to be from 1.0 μM to 5.0 μM) | + (activity was measured to be greater than 5.0 μM) | ++ (activity was measured to be from 1.0 μM to 5.0 μM) | +++ (activity was measured to be less than 1.0 μM)

Now from value to compound, other results behind:

Row | Emax [1, 5] [%] | Emax [2, 5] [%] | Emax [3, 5] [%] | Emax [4, 5] [%] | Emax [1, 6] [%] | Emax [2, 6] [%] | Emax [3, 6] [%] | Emax [4, 6] [%] | SMILES | M1 Activity [1] | M3 Activity [2] | M2 Activity [3] | M4 Activity [4]
9 | < 25 | < 25 | < 25 | 25 to 100 |  |  |  |  | COc1ccc(F)cc1C1(F)CCN(C2CCOCC2)CC1 [Compound 314] | + (activity was measured to be greater than 5.0 μM) | + (activity was measured to be greater than 5.0 μM) | + (activity was measured to be greater than 5.0 μM) | + (activity was measured to be greater than 5.0 μM)
10 |  |  |  |  | 25 to 100 | < 25 | < 25 | 25 to 100 | Fc1ccccc1C1CCN(C2CCOCC2)CC1 [Compound 378] | + (activity was measured to be greater than 5.0 μM) | + (activity was measured to be greater than 5.0 μM) | + (activity was measured to be greater than 5.0 μM) | +++ (activity was measured to be less than 1.0 μM)
11 | < 25 | < 25 | < 25 | 25 to 100 |  |  |  |  | CNC(=O)c1ccc(-c2ccc(OC)c(C3CCN(C4CCCCC4)CC3)c2)cc1Cl [Compound 353] | + (activity was measured to be greater than 5.0 μM) | + (activity was measured to be greater than 5.0 μM) | + (activity was measured to be greater than 5.0 μM) | ++ (activity was measured to be from 1.0 μM to 5.0 μM)
12 | < 25 | < 25 | < 25 | 25 to 100 |  |  |  |  | CNC(=O)c1ccc(-c2ccc(OC)c(C3CCN(C4C[C@H]5CC[C@H]4C5)CC3)c2)cc1Cl (some centres unmarked) [Compound 328] | + (activity was measured to be greater than 5.0 μM) | + (activity was measured to be greater than 5.0 μM) | + (activity was measured to be greater than 5.0 μM) | ++ (activity was measured to be from 1.0 μM to 5.0 μM)
